In patent publication US20230278954A1, “BRANCHED LIPID COMPOUDS” (priority 2020, published 2023):
pEC50: −log10 of the molar value. Values joined by “and” are separate entries in the source; they are usually repeats but may differ in a detail not shown here. Equal values may be shown once.

Experiments:
mouse TLR2 = biological target: T1, mouse TLR2 (Mus musculus, UniProt Q9QUN7); experiment: HEK-Blue mTLR2 dose response (SEAP reporter); assay type: cell-based
T1 construct: expressed in transfected cells; host or cells: HEK-Blue mTLR2 cells
T1 sequence (Q9QUN7 25-784): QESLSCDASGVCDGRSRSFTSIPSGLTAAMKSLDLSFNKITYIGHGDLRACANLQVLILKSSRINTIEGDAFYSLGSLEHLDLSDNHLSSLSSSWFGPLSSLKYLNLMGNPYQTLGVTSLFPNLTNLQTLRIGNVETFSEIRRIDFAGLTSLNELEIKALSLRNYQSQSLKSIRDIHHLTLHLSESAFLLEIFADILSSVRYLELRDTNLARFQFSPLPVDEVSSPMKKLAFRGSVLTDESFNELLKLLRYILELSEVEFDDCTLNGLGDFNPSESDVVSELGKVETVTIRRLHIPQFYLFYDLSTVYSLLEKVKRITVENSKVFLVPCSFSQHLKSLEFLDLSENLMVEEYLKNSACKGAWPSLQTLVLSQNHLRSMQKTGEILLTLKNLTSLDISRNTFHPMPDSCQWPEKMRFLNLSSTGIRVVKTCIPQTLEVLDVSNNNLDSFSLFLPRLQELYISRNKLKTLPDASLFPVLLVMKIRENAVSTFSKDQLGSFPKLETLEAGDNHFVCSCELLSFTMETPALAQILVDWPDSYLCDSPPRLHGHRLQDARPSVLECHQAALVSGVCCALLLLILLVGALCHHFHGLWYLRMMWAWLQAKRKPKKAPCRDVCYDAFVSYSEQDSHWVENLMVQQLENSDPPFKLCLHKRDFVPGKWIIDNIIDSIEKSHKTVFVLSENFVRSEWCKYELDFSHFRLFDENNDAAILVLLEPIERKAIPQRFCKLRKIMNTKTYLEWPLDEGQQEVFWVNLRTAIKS
T1 sequence (Q9Y2C9 32-796 partner): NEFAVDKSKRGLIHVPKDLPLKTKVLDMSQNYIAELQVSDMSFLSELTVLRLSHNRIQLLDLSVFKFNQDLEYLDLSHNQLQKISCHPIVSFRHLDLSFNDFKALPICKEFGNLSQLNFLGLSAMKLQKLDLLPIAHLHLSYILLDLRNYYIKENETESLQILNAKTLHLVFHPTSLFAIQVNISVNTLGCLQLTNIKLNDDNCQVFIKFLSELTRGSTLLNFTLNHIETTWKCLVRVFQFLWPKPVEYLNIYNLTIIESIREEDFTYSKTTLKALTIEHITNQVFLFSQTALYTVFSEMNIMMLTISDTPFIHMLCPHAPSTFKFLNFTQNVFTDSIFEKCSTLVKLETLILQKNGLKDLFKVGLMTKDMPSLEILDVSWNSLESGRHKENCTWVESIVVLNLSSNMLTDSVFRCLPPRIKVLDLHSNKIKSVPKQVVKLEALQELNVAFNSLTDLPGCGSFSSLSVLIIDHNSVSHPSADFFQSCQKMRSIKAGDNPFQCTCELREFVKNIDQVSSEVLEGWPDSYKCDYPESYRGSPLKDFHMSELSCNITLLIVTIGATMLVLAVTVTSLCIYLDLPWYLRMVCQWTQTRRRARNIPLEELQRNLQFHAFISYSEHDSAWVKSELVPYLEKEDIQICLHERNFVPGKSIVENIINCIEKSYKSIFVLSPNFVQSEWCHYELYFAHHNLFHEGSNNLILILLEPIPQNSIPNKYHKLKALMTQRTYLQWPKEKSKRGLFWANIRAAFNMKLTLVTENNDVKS
Protocol: (§1) Toll-Like Receptor (TLR) stimulation is tested by assessing NF-KB activation in the TLR expressing cell lines. HEK-Blue h/mTLR2 cells have been stably transfected with human or mouse TLR2 and CD14. The activity of the test articles are tested on human and mouse TLR2, as potential agonists. The test articles are evaluated at seven concentrations and compared to control ligands (see list below). These steps are performed in triplicate.
(§2) A 5 µg/mL working stock was then prepared for each compound from the 20 µg/mL dilution in sterile PBS. Starting from the 5 µg/mL working stock, a series of six 1:4 serial dilutions were made by mixing 100 µL of the previous highest dilution with 300 µL sterile PBS.
(§3) The secreted embryonic alkaline phosphatase (SEAP) reporter is under the control of a promoter inducible by the transcription factor NF-κB. This reporter gene allows the monitoring of signaling through the TLR, based on the activation of NF-κB. In a 96-well plate (200 µL total volume) containing the appropriate cells (50,000 - 75,000 cells/well), 20 µL of the test article or the positive control ligand (HKLC) is added to the wells. The media added to the wells is designed for the detection of NF-κB induced SEAP expression. After a 16-24-hour incubation the optical density (OD) is read at 650 nm on a Molecular Devices SpectraMax 340PC absorbance detector.

human TLR2 = biological target: T2, human TLR2 (Homo sapiens, UniProt O60603); experiment: Activation of human TLR2 III: HEK-Blue hTLR2 dose response (SEAP reporter); assay type: cell-based; conditions: for optical density (650 nm): screenings 1-3; for stimulatory / agonist activity for hTLR2 (in words) / fold induction at 120 fg/mL / fold induction at 490 fg/mL / fold induction at 1.95 pg/mL / fold induction at 7.81 pg/mL / fold induction at 31.25 pg/mL / fold induction at 0.000125 µg/mL / fold induction at 0.0005 µg/mL: HEK-Blue hTLR2; for fold induction at 120 fg/mL / fold induction at 490 fg/mL / fold induction at 1.95 pg/mL / fold induction at 7.81 pg/mL / fold induction at 31.25 pg/mL / fold induction at 0.000125 µg/mL / fold induction at 0.0005 µg/mL: read-out: Fold Induction (ratio of average induced value to average non-induced value); for pEC50: agonism of hTLR2, HEK-Blue hTLR2
T2 construct: expressed in transfected cells; host or cells: HEK-Blue hTLR2 cells
T2 sequence (O60603 21-784): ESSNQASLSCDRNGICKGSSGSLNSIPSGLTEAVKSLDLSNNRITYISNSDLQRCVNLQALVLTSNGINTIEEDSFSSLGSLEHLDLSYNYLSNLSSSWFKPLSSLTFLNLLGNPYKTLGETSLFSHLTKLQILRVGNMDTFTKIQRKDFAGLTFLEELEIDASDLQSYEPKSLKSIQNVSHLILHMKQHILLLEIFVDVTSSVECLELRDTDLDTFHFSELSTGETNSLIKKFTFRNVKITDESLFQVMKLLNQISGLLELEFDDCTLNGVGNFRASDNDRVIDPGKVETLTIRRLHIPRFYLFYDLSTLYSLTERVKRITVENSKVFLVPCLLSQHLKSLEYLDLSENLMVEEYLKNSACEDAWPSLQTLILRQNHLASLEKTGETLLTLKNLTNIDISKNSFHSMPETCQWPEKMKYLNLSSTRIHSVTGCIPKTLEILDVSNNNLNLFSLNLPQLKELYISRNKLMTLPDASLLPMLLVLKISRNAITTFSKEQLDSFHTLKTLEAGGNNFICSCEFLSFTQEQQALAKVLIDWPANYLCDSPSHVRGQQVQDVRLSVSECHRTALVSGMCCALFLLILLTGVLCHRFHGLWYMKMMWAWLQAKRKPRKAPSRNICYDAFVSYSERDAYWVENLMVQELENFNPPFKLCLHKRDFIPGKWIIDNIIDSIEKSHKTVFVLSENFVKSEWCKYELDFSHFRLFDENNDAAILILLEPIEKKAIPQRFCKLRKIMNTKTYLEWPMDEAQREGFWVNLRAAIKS
T2 sequence (Q9Y2C9 32-796 partner): as the sequence (Q9Y2C9 32-796 partner) above
Protocol: as §1, §2, §3

[1] = Stability III: accelerated aging at 40° C., 3 or 6 weeks, HPLC recovery; assay type: physicochemical
Protocol: Recovery of the target compound was assessed by HPLC, and the values as a percentage of the reference sample are reported in Table 14 and in FIG. 5.

HEK-Blue Null1 cells = experiment: TLR- control cell line HEK-Blue Null1 (control for human TLR2); assay type: cell-based
Protocol: as §3

HEK-Blue Null2 cells = experiment: TLR- control cell line HEK-Blue Null2 (control for mouse TLR2); assay type: cell-based
Protocol: as §3

stimulatory / agonist activity for mTLR2 (in words) (mouse TLR2)	Average optical density (650 nm) (human TLR2; 0.12 pg/mL)	optical density (650 nm) (human TLR2; 0.12 pg/mL)	Average optical density (650 nm) (human TLR2; 0.49 pg/mL)	optical density (650 nm) (human TLR2; 0.49 pg/mL)	Average optical density (650 nm) (human TLR2; 1.95 pg/mL)	optical density (650 nm) (human TLR2; 1.95 pg/mL)	Average optical density (650 nm) (human TLR2; 7.81 pg/mL)	optical density (650 nm) (human TLR2; 7.81 pg/mL)	Average optical density (650 nm) (human TLR2; 31.25 pg/mL)	optical density (650 nm) (human TLR2; 31.25 pg/mL)	Average optical density (650 nm) (human TLR2; 125 pg/mL)	optical density (650 nm) (human TLR2; 125 pg/mL)	Average optical density (650 nm) (human TLR2; 500 pg/mL)	optical density (650 nm) (human TLR2; 500 pg/mL)	stimulatory / agonist activity for hTLR2 (in words) (human TLR2)	fold induction at 120 fg/mL (human TLR2; 0.12 pg/mL)	fold induction at 490 fg/mL (human TLR2; 0.49 pg/mL)	fold induction at 1.95 pg/mL (human TLR2; 1.95 pg/mL)	fold induction at 7.81 pg/mL (human TLR2; 7.81 pg/mL)	Compound	other results
stimulatory activity	0.666	0.688 and 0.591 and 0.718	1.099	1.080 and 1.097 and 1.121	1.521	1.478 and 1.513 and 1.573	1.978	1.903 and 1.897 and 2.133	2.252	2.093 and 2.297 and 2.367	2.540	2.531 and 2.544 and 2.545	2.475	2.466 and 2.488 and 2.472	stimulatory activity	9.2	15.3	21.1	27.5	CCCCCCCCCCCCCC[C@H](C)C(=O)OCC[C@H](CSC[C@H](N)C(=O)N[C@@H](CO)C(=O)NCCOCCOCCOCCOCCOCCOCCOCCOCCOCCOCCOCCOCCOCCOCCOCCOCCOCCOCCOCCOCCOCCOCCOCCOCCOCCOCCOCCOCCC(=O)NCC(N)=O)OC(=O)[C@@H](C)CCCCCCCCCCCCCC [Compound B16]	fold induction at 31.25 pg/mL (human TLR2; 31.25 pg/mL): 31.3; fold induction at 0.000125 µg/mL (human TLR2; 125 pg/mL): 35.3; fold induction at 0.0005 µg/mL (human TLR2; 500 pg/mL): 34.4; pEC50 (human TLR2): 9.30; stability under accelerated storage conditions (in words) [1]: excellent stabilities; stimulatory response in HEK-Blue Null1 (human) cells (in words) (HEK-Blue Null1 cells): not observed; stimulatory response in HEK-Blue Null2 (mouse) cells (in words) (HEK-Blue Null2 cells): not observed
stimulatory activity	0.823	0.826 and 0.869 and 0.774	1.342	1.256 and 1.364 and 1.406	2.018	1.994 and 2.061 and 2.000	2.562	2.569 and 2.545 and 2.571	2.744	2.820 and 2.720 and 2.691	2.814	2.928 and 2.800 and 2.713	2.759	2.722 and 2.765 and 2.791	stimulatory activity	18.7	25.5	28	33	CCCCCCCCCCCCCC[C@@H](C)C(=O)OCC[C@H](CSC[C@H](N)C(=O)N[C@@H](CO)C(=O)NCCOCCOCCOCCOCCOCCOCCOCCOCCOCCOCCOCCOCCOCCOCCOCCOCCOCCOCCOCCOCCOCCOCCOCCOCCOCCOCCOCCOCCC(=O)NCC(N)=O)OC(=O)[C@H](C)CCCCCCCCCCCCCC [Compound B14]	fold induction at 31.25 pg/mL (human TLR2; 31.25 pg/mL): 33.7; fold induction at 0.000125 µg/mL (human TLR2; 125 pg/mL): 35.2; fold induction at 0.0005 µg/mL (human TLR2; 500 pg/mL): 33.9; pEC50 (human TLR2): 9.58; stability under accelerated storage conditions (in words) [1]: excellent stabilities; stimulatory response in HEK-Blue Null1 (human) cells (in words) (HEK-Blue Null1 cells): not observed; stimulatory response in HEK-Blue Null2 (mouse) cells (in words) (HEK-Blue Null2 cells): not observed
